Test results from ChEMBL document CHEMBL1131433, “The bioactive conformation of aminoalkylindoles at the cannabinoid CB1 and CB2 receptors: insights gained from (E)- and (Z)-naphthylidene indenes” (J Med Chem, 1998).
pEC50: −log10 of the molar value.

Species: Cavia porcellus
Test: Compound was evaluated for inhibition of electrically evoked contractions of the myenteric plexus-longitudinal muscle of the Guinea pig small intestine
Assay type: functional
Conditions: Muscle tissue

Point of comparison: `CC1=C(CCN2CCOCC2)c2ccccc2C1=Cc1cccc2ccccc12` [listing 1 of 2 here], pEC50 7.28. Against it:
- C1=C(CCN2CCOCC2)c2ccccc2/C1=C/c1cccc2ccccc12 — 0.90 log units higher, 8.18
- C1=C(CCN2CCOCC2)c2ccccc2/C1=C\c1cccc2ccccc12 — 0.73 log units lower, 6.55
- CC1=C(CCN2CCOCC2)c2ccccc2C1=Cc1cccc2ccccc12 [listing 2 of 2 here] — lower, < 5.50
- Cc1c(C(=O)c2cccc3ccccc23)c2cccc3c2n1[C@H](CN1CCOCC1)CO3 [WIN-552122] — 1.03 log units higher, 8.31

Species: Cavia porcellus
Test: Compound was evaluated for maximum inhibition of electrically evoked contractions of the myenteric plexus-longitudinal muscle of the Guinea pig small intestine
Assay type: functional
Conditions: Muscle tissue

`Cc1c(C(=O)c2cccc3ccccc23)c2cccc3c2n1[C@H](CN1CCOCC1)CO3` [WIN-552122] showed an Emax of 61.9%.
